This assay deals with P388 leukemia ip, CD2F1 mice, survival T/C. Briefly: NCI In Vivo Anticancer Drug Screen. Data for tumor model P388 Leukemia (intraperitoneal) in CD2F1 (CDF1) mice. The settings on record: endpoint: median survival time, higher = longer survival. In a few lines:
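Mice carrying the transplanted tumor received test compound or vehicle. Survival was recorded in each group, and the value is the treated-group measurement divided by that of the vehicle-treated control group.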

The mark [1] stands for this setting: dose: 6.25 mg/kg/injection, schedule: Q01DX009 (ip), vehicle: saline with Tween-80.
The mark [2] stands for this setting: dose: 12.5 mg/kg/injection, schedule: Q01DX009 (ip), vehicle: saline with Tween-80.
Where [3] appears, read: dose: 25.0 mg/kg/injection, schedule: Q01DX009 (ip), vehicle: saline with Tween-80.
The mark [4] stands for this setting: dose: 50.0 mg/kg/injection, schedule: Q01DX009 (ip), vehicle: saline with Tween-80.
Where [5] appears, read: dose: 50.0 mg/kg/injection, schedule: Q01DX005 (ip), vehicle: saline with Tween-80.
[6] abbreviates: dose: 100.0 mg/kg/injection, schedule: Q01DX005 (ip), vehicle: saline with Tween-80.
[7] abbreviates: dose: 200.0 mg/kg/injection, schedule: Q01DX005 (ip), vehicle: saline with Tween-80.
The mark [8] stands for this setting: dose: 100.0 mg/kg/injection, schedule: Q01DX009 (ip), vehicle: saline with Tween-80.
[9] abbreviates: dose: 200.0 mg/kg/injection, schedule: Q01DX009 (ip), vehicle: saline with Tween-80.

Where “and” joins values, the source holds several entries; their conditions need not be identical. Equal values may be shown once. Inconclusive results and toxic doses are left out.

`CCN=C(C1=C(O)c2ccccc2C1=O)c1ccccc1`: the T/C was 94 % of control (dose: 50.0 mg/kg/injection, schedule: Q04DX002 (ip), vehicle: saline with Tween-80); 119 % of control (dose: 100.0 mg/kg/injection, schedule: Q04DX002 (ip), vehicle: saline with Tween-80); 111 % of control (dose: 200.0 mg/kg/injection, schedule: Q04DX002 (ip), vehicle: saline with Tween-80).
Consider `Cn1cc(Cl)n(C)c(=O)c1=O`, for which the T/C reads like this: (dose: 6.25 mg/kg/injection, schedule: Q01DX001 (ip), vehicle: saline with Tween-80) 104 % of control; (dose: 12.5 mg/kg/injection, schedule: Q01DX001 (ip), vehicle: saline with Tween-80) 104 % of control; (dose: 25.0 mg/kg/injection, schedule: Q01DX001 (ip), vehicle: saline with Tween-80) 118 % of control.
For `O=C1C(Br)=CC(=NCl)C=C1Br`, the T/C runs as follows: (dose: 3.13 mg/kg/injection, schedule: Q01DX009 (ip), vehicle: Klucel (hydroxypropylcellulose) (HPC)) 101 % of control and 88 % of control; (dose: 6.25 mg/kg/injection, schedule: Q01DX009 (ip), vehicle: Klucel (hydroxypropylcellulose) (HPC)) 101 % of control; under setting [1], 93 % of control; (dose: 12.5 mg/kg/injection, schedule: Q01DX009 (ip), vehicle: Klucel (hydroxypropylcellulose) (HPC)) 105 % of control and 94 % of control; under setting [2], 88 % of control; under setting [3], 90 % of control.
In the case of `O=C1c2ccccc2C(=Cc2cccnc2)c2ccccc21`, the T/C by setting is: under setting [1], 94 % of control; under setting [2], 105 % of control; under setting [3], 102 % of control; under setting [4], 91 % of control.
As to `CN1CCc2c1c1c(c3c4ccccc4n(C)c23)N(C)CC1`, the T/C (dose: 6.25 mg/kg/injection, schedule: Q01DX005 (ip), vehicle: Klucel (hydroxypropylcellulose) (HPC)) was 103 % of control; the T/C (dose: 12.5 mg/kg/injection, schedule: Q01DX005 (ip), vehicle: Klucel (hydroxypropylcellulose) (HPC)) was 104 % of control; the T/C (dose: 25.0 mg/kg/injection, schedule: Q01DX005 (ip), vehicle: Klucel (hydroxypropylcellulose) (HPC)) is 107 % of control.
`COc1cc(O)c(C(C)=O)c2c1C=CC(C)(C)O2`: the T/C was 102 % of control under setting [5], 105 % of control under setting [6] and 100 % of control under setting [7].
Turning to `O=[N+]([O-])c1ccc(/C=N\N=C\c2ccco2)cc1`, the T/C by setting is: under setting [8], 90 % of control; under setting [9], 100 % of control; (dose: 400.0 mg/kg/injection, schedule: Q01DX009 (ip), vehicle: saline with Tween-80) 90 % of control.
For `COc1cc(C2(c3ccc(O)c(OC)c3)CCCCC2)ccc1O`, the T/C (dose: 50.0 mg/kg/injection, schedule: Q01DX009 (ip), vehicle: Klucel (hydroxypropylcellulose) (HPC)) was 100 % of control; the T/C (dose: 100.0 mg/kg/injection, schedule: Q01DX009 (ip), vehicle: Klucel (hydroxypropylcellulose) (HPC)) is 100 % of control; the T/C (dose: 200.0 mg/kg/injection, schedule: Q01DX009 (ip), vehicle: Klucel (hydroxypropylcellulose) (HPC)) was 100 % of control.
Turning to `CC(C)NCC(O)c1cc(Br)c(Br)s1` (centres undefined), the T/C was 98 % of control (dose: 50.0 mg/kg/injection, schedule: Q01DX009 (ip), vehicle: saline) and 102 % of control (dose: 100.0 mg/kg/injection, schedule: Q01DX009 (ip), vehicle: saline).
With `C1CCC([N-]C2CCCCC2)CC1.C1CCC([N-]C2CCCCC2)CC1.[Cl][Pt+2][Cl]`, the T/C (dose: 100.0 mg/kg/injection, schedule: Q01DX001 (sc), vehicle: other) was 103 % of control and the T/C (dose: 200.0 mg/kg/injection, schedule: Q01DX001 (sc), vehicle: other) was 107 % of control.
For the molecule `N#Cc1c(-c2ccc(Cl)cc2)c(-c2ccc(Cl)cc2)nn(CCOC(=O)CN)c1=O`, the T/C (dose: 3.13 mg/kg/injection, schedule: Q01DX005 (ip), vehicle: distilled water + Tween-80) is 99 % of control and 100 % of control; the T/C (dose: 6.25 mg/kg/injection, schedule: Q01DX005 (ip), vehicle: distilled water + Tween-80) was 100 % of control and 103 % of control; the T/C (dose: 12.5 mg/kg/injection, schedule: Q01DX005 (ip), vehicle: distilled water + Tween-80) is 105 % of control and 115 % of control and 97 % of control; the T/C (dose: 12.5 mg/kg/injection, schedule: Q04DX002 (ip), vehicle: distilled water + Tween-80) was 103 % of control; the T/C (dose: 25.0 mg/kg/injection, schedule: Q01DX005 (ip), vehicle: distilled water + Tween-80) was 108 % of control and 120 % of control (2×); the T/C (dose: 25.0 mg/kg/injection, schedule: Q04DX002 (ip), vehicle: distilled water + Tween-80) is 111 % of control and 112 % of control. The T/C was 155 % of control (dose: 50.0 mg/kg/injection, schedule: Q01DX005 (ip), vehicle: distilled water + Tween-80) and 116 % of control (dose: 50.0 mg/kg/injection, schedule: Q01DX005 (ip), vehicle: saline).
For `Nc1cccc(CCCCc2ccc(Cl)c(S(=O)(=O)F)c2)c1`, the T/C reads like this: (dose: 50.0 mg/kg/injection, schedule: Q01DX009 (ip), vehicle: saline sonified) 86 % of control; (dose: 100.0 mg/kg/injection, schedule: Q01DX009 (ip), vehicle: saline sonified) 86 % of control; (dose: 200.0 mg/kg/injection, schedule: Q01DX009 (ip), vehicle: saline sonified) 95 % of control.
For the molecule `C=CCN(CC=C)c1nc(N)c2cc(OC)c(OC)cc2n1`, the T/C (dose: 37.5 mg/kg/injection, schedule: Q01DX009 (ip), vehicle: suspension in saline) was 100 % of control and the T/C (dose: 75.0 mg/kg/injection, schedule: Q01DX009 (ip), vehicle: suspension in saline) is 106 % of control.
Regarding `CCOC1=C(C)N2/C(=C/C(=O)OC)[C@@H]3C[C@@H](C)C[C@]2(O3)S1`, the T/C is, setting by setting: (dose: 60.0 mg/kg/injection, schedule: Q01DX005 (ip), vehicle: saline with Tween-80) 101 % of control; (dose: 120.0 mg/kg/injection, schedule: Q01DX005 (ip), vehicle: saline with Tween-80) 94 % of control; (dose: 240.0 mg/kg/injection, schedule: Q01DX005 (ip), vehicle: saline with Tween-80) 104 % of control.
As to `CN1c2ccccc2C2CCCCC21` (centres undefined), the T/C under setting [5] was 100 % of control, the T/C under setting [6] is 99 % of control and the T/C under setting [7] was 111 % of control.
With `Nc1nc(N)c2nc(Sc3ccc(Cl)cc3)c(=O)[nH]c2n1`, the T/C by setting is: under setting [4], 97 % of control; under setting [8], 91 % of control; under setting [9], 105 % of control.

For the origin of these results see PubChem BioAssay AID330 (DTP/NCI, 2004).
